Source: PubChem BioAssay (NCI)
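Assay format: 96-well plates, 48-hour exposure. The concentration for 50% growth inhibition is given as GI50. Definition used: TGI = concentration required for complete inhibition of growth.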

Experiments:
Assay in all cases: NCI tumour cell line growth inhibition, 48 h; in the data active = GI50 below about 0.43 µM; inactive = the rest
DU-145 prostate = test system: DU-145 prostate
LOX IMVI melanoma = test system: LOX IMVI melanoma
KM12 colon = test system: KM12 colon
HOP-92 NSCLC = test system: HOP-92 NSCLC
ACHN renal = test system: ACHN renal
A549 NSCLC = test system: A549 NSCLC
786-0 renal = test system: 786-0 renal
OVCAR-5 ovarian = test system: OVCAR-5 ovarian
SK-MEL-5 melanoma = test system: SK-MEL-5 melanoma
NCI-H226 lung = test system: NCI-H226 lung
U251 CNS = test system: U251 CNS
MCF7 breast = test system: MCF7 breast
NCI-H23 lung = test system: NCI-H23 lung
NCI-H522 lung = test system: NCI-H522 lung
HCT-116 colon = test system: HCT-116 colon
MOLT-4 leukemia = test system: MOLT-4 leukemia
T-47D breast = test system: T-47D breast
HOP-62 NSCLC = test system: HOP-62 NSCLC
PC-3 prostate = test system: PC-3 prostate
A498 renal = test system: A498 renal
TK-10 renal = test system: TK-10 renal
OVCAR-8 ovarian = test system: OVCAR-8 ovarian
HS 578T breast = test system: HS 578T breast
CCRF-CEM leukemia = test system: CCRF-CEM leukemia
OVCAR-4 ovarian = test system: OVCAR-4 ovarian
SNB-19 CNS = test system: SNB-19 CNS
BT-549 breast = test system: BT-549 breast
SNB-75 CNS = test system: SNB-75 CNS
SK-MEL-2 melanoma = test system: SK-MEL-2 melanoma
SN12C renal = test system: SN12C renal
SW-620 colon = test system: SW-620 colon
COLO 205 colon = test system: COLO 205 colon
SF-295 CNS = test system: SF-295 CNS
K-562 leukemia = test system: K-562 leukemia
EKVX NSCLC = test system: EKVX NSCLC
IGROV1 ovarian = test system: IGROV1 ovarian
MDA-MB-231 breast = test system: MDA-MB-231 breast
SK-OV-3 ovarian = test system: SK-OV-3 ovarian
SF-268 CNS = test system: SF-268 CNS
SK-MEL-28 melanoma = test system: SK-MEL-28 melanoma
HL-60(TB) leukemia = test system: HL-60(TB) leukemia
RXF 393 renal = test system: RXF 393 renal
OVCAR-3 ovarian = test system: OVCAR-3 ovarian
HCT-15 colon = test system: HCT-15 colon
MALME-3M melanoma = test system: MALME-3M melanoma
MDA-MB-435 = test system: MDA-MB-435
M14 melanoma = test system: M14 melanoma
NCI-H460 lung = test system: NCI-H460 lung
UO-31 renal = test system: UO-31 renal
HT29 colon = test system: HT29 colon
RPMI-8226 leukemia = test system: RPMI-8226 leukemia
HCC-2998 colon = test system: HCC-2998 colon
NCI/ADR-RES ovarian = test system: NCI/ADR-RES ovarian
UACC-62 melanoma = test system: UACC-62 melanoma

COc1ccc2c(c1)OC1=C(C(=O)OC1)C2c1cc(OC)c(OC)c(OC)c1 (configuration not stated)
61.2 µM: TGI (SK-MEL-5 melanoma)
> 42.4 µM: TGI (DU-145 prostate)
1.14 µM: TGI (OVCAR-3 ovarian)
> 49.5 µM: TGI (SK-OV-3 ovarian)
0.735 µM: TGI (RXF 393 renal)
> 89.6 µM: TGI (KM12 colon)
15.1 µM: TGI (A498 renal)
> 100 µM: TGI (LOX IMVI melanoma) | TGI (HOP-92 NSCLC) | TGI (ACHN renal) | TGI (A549 NSCLC) | TGI (786-0 renal) | TGI (OVCAR-5 ovarian) | TGI (U251 CNS) | TGI (MCF7 breast) | TGI (NCI-H23 lung) | TGI (HCT-116 colon) | TGI (T-47D breast) | TGI (HOP-62 NSCLC) | TGI (PC-3 prostate) | TGI (TK-10 renal) | TGI (OVCAR-8 ovarian) | TGI (HS 578T breast) | TGI (CCRF-CEM leukemia) | TGI (OVCAR-4 ovarian) | TGI (SNB-19 CNS) | TGI (BT-549 breast) | TGI (SNB-75 CNS) | TGI (SK-MEL-2 melanoma) | TGI (SN12C renal) | TGI (SW-620 colon) | TGI (SF-295 CNS) | TGI (K-562 leukemia) | TGI (EKVX NSCLC) | TGI (IGROV1 ovarian) | TGI (MDA-MB-231 breast) | TGI (SF-268 CNS) | TGI (SK-MEL-28 melanoma) | TGI (HCT-15 colon) | TGI (M14 melanoma) | TGI (UO-31 renal) | TGI (HT29 colon) | TGI (RPMI-8226 leukemia) | TGI (HCC-2998 colon) | TGI (NCI/ADR-RES ovarian) | TGI (UACC-62 melanoma)
active: GI50 (KM12 colon) 0.396 µM | GI50 (SK-MEL-5 melanoma) 0.363 µM | GI50 (MCF7 breast) 0.35 µM | GI50 (NCI-H522 lung) 0.273 µM | GI50 (PC-3 prostate) 0.391 µM | GI50 (A498 renal) 0.281 µM | GI50 (HS 578T breast) 0.324 µM | GI50 (CCRF-CEM leukemia) 0.315 µM | GI50 (SNB-75 CNS) 0.295 µM | GI50 (SW-620 colon) 0.334 µM | GI50 (COLO 205 colon) 0.312 µM | GI50 (SF-295 CNS) 0.279 µM | GI50 (K-562 leukemia) 0.199 µM | GI50 (SK-OV-3 ovarian) 0.392 µM | GI50 (HL-60(TB) leukemia) 0.256 µM | GI50 (RXF 393 renal) 0.231 µM | GI50 (OVCAR-3 ovarian) 0.313 µM | GI50 (MDA-MB-435) 0.104 µM | GI50 (NCI-H460 lung) 0.359 µM | GI50 (HT29 colon) 0.345 µM | GI50 (NCI/ADR-RES ovarian) 0.325 µM
5.99 µM: TGI (NCI-H226 lung)
> 81.2 µM: TGI (NCI-H460 lung)
2.02 µM: TGI (NCI-H522 lung)
0.673 µM: TGI (HL-60(TB) leukemia)
> 47.2 µM: TGI (MOLT-4 leukemia)
inactive: GI50 (DU-145 prostate) 0.529 µM | GI50 (LOX IMVI melanoma) 0.608 µM | GI50 (HOP-92 NSCLC) 3.99 µM | GI50 (ACHN renal) 1.27 µM | GI50 (A549 NSCLC) 0.61 µM | GI50 (786-0 renal) 0.632 µM | GI50 (OVCAR-5 ovarian) 4.3 µM | GI50 (NCI-H226 lung) 0.441 µM | GI50 (U251 CNS) 0.456 µM | GI50 (NCI-H23 lung) 0.609 µM | GI50 (HCT-116 colon) 0.535 µM | GI50 (MOLT-4 leukemia) 0.542 µM | GI50 (T-47D breast) 0.489 µM | GI50 (HOP-62 NSCLC) 0.545 µM | GI50 (TK-10 renal) > 67.7 µM | GI50 (OVCAR-8 ovarian) 0.709 µM | GI50 (OVCAR-4 ovarian) 1.42 µM | GI50 (SNB-19 CNS) 0.58 µM | GI50 (BT-549 breast) 1.29 µM | GI50 (SK-MEL-2 melanoma) 0.518 µM | GI50 (SN12C renal) 0.806 µM | GI50 (IGROV1 ovarian) 3.18 µM | GI50 (MDA-MB-231 breast) 1.3 µM | GI50 (SF-268 CNS) 1.91 µM | GI50 (SK-MEL-28 melanoma) 0.667 µM | GI50 (HCT-15 colon) 0.499 µM | GI50 (MALME-3M melanoma) 0.468 µM | GI50 (M14 melanoma) 0.471 µM | GI50 (UO-31 renal) 0.961 µM | GI50 (RPMI-8226 leukemia) 0.514 µM | GI50 (HCC-2998 colon) 1.27 µM | GI50 (UACC-62 melanoma) 0.55 µM
0.358 µM: TGI (MDA-MB-435)
87.6 µM: TGI (MALME-3M melanoma)
0.974 µM: TGI (COLO 205 colon)
